From patent publication US20220041681A1 (MEDIMMUNE LIMITED, priority 2016, published 2022)

Assays:
[1] = format: in vitro ADME, human; settings: human, 24 h, 2 μmol/L
Protocol: Stability testing of peptides in plasma.
Stock solutions of the peptides of about 200 μmol/L was prepared by weighing solid peptide into a Eppendorf Low Bind Tube and dissolved in DMSO. 10 μL of stock solutions were added to 990 μL of plasma in an Eppendorf Low Bind Tube, resulting in initial concentrations of the peptides in plasma of about 2 μmol/L. The frozen blank plasma from human, rat and mouse had been thawed and heated to a temperature of 37° C. before addition of the stock solution. The spiked plasma samples were gently mixed and allowed to equilibrate for about 5 minutes before start of experiment. The plasma samples were incubated for 48 hours in a GalaxyR CO2 incubator at 37° C. Sampling (30 μL) was performed at 0, 1, 2, 6.5, 17, 24 and 48 hours. The samples were stored at −70° C. until analysis.
Plasma samples were assayed as follows. The 30 μL plasma samples were protein precipitated with […] of cold ethanol in a 96-well low bind plate (Eppendorf Protein LoBind). After mixing and centrifugation, 100 μl the supernatant was transferred to a new plate and 1 μl was injected onto an analytical column.
The analysis was performed using a μLC-system (LC Exigent μLC) coupled to a medium high resolution mass spectrometer (Perkin Elmer PenTOF) with positive electrospray ionisation. The analytical column was a 5 cm, 1 mm Agilent Poroshell (custom made) C18-column with a particle size of 2.7 μm. Flow: 0.1 ml/min using a slow reversed phase gradient. Mobile phases used were acetonitrile and water containing 0.1% formic acid.
The resulting data were manually evaluated for the following degradation products: +1 product (acid) and the DPP IV-cleavage product. Products with +1 mass may arise from deamidation at amide groups of glutamine or at the C-terminus. Cleavage products arise from the action of the protease DPP IV in plasma. Both the degradation of the peptides and formation of peptide products were reported in percentage of the initial peptide concentration. Peaks were integrated and % remaining peptide was calculated: (peak area/peak area 0H)*100. Levels of deamidation and DPP IV cleavage were low for G797 and G933.

[2] = Phase 1 single-ascending dose study; settings: human, plasma, subcutaneous, 300 μg
human serum albumin = human serum albumin (Homo sapiens, UniProt P02768); test: Fraction of free peptide calculated from variation in cAMP generation with HSA concentration; settings: human
Description: Data was transformed to % Delta F as described in manufacturer's guidelines and analysed by 4-parameter logistic fit to determine EC50 values. […] To compare the balance of activities at the GLP1R and GlucR between different peptides and across different conditions, these can be correlated using the calculation below, where the EC50's are related to those of the natural ligands.

[3] = tested on: overweight or obese subjects with type 2 diabetes mellitus (T2DM); test: Multiple-ascending dose study Part II (Cohorts 5 and 6); format: in vivo, human; settings: for Fasting Glucose (change) / Glucose AUG (change) / Weight (change): n = 12 active
Protocol: A randomized, double-blind, multiple-ascending dose study is performed. This study consists of 2 cohorts: cohort 5 and cohort 6.
The study consists of an inpatient up-titration evaluation period beginning on Day 3 for both Cohorts 5 and 6 and an outpatient follow-up period. The first 4 days and the final day of dosing at 300 μg are inpatient.
Subjects have a second inpatient period for the initiation of the 300 μg dose ending on the fourth day at that dose followed by at-home self administration.
Additional time points include before commencing the 300 μg dose (Day 16 for Cohort 5 and Day 11 for Cohort 6), and at the end of dosing (Day 22 for Cohort 5 and Day 17 for Cohort 6).

[4] = tested on: overweight or obese subjects with type 2 diabetes mellitus (T2DM); test: Phase 1/2 multiple-ascending dose study Part I (Cohorts 1-4)
Protocol: (§1) A Phase 1/2, randomized, double-blind, multiple-ascending dose study is performed in two parts (A and B).
Part A consists of 3 cohorts.
Part B consists of 1 cohort.
(§2) The initial dose is 100 μg. […] The study duration for each subject varies by cohort and consists of an inpatient multiple-ascending dose (MAD) or up-titration evaluation period (beginning on Day −2 and ending after Day 8 for Cohort 1, Day 12 for Cohort 2, Day 16 for Cohort 3, and Day 13 for Cohort 4) and an outpatient follow-up period.
(§3) The subject remains in the facility for observation and safety tests including ECGs, telemetry, monitoring of vital signs, and assessments of the injection site for potential reactions throughout the day and during the treatment period.
(§4) Mixed-meal test (MMT) procedures are performed on Day −1 and on the last day of the highest dose level achieved for all cohorts. […] For the MMT, the subject consumes a standardized meal (Ensure Plus %) within 5 minutes, and timed serial blood samples are obtained for measurement of glucose and parameters related to glucose metabolism just before and through 240 minutes after consumption of the standandized meal. During the inpatient period, finger prick glucose samples are collected 15 minutes prior to and 2 hours after breakfast, mid-day, and evening meals, and prior to going to bed.
(§5) Cohort 4 subjects are re-admitted for an overnight inpatient stay at the end of the at-home self-administration period to collect the final endpoints.
(§6) Subjects are discharged from the unit the day after the final dose is administered in the study.
(§7) Missing measurements at the end of treatment are replaced with the last available measurement. The comparison is conducted at a two-sided significance level of 0.1.

[5] = tested on: overweight or obese subjects with type 2 diabetes mellitus (T2DM); settings: human, in vivo
Protocol: as §1
Part A consists of 3 cohorts.
Part B consists of 1 cohort.
as §2, §3, §4, §5, §6, §7

[6] = Cohort 4, 200 ug, n = 25 active

Sequence of human serum albumin (P02768 25-609): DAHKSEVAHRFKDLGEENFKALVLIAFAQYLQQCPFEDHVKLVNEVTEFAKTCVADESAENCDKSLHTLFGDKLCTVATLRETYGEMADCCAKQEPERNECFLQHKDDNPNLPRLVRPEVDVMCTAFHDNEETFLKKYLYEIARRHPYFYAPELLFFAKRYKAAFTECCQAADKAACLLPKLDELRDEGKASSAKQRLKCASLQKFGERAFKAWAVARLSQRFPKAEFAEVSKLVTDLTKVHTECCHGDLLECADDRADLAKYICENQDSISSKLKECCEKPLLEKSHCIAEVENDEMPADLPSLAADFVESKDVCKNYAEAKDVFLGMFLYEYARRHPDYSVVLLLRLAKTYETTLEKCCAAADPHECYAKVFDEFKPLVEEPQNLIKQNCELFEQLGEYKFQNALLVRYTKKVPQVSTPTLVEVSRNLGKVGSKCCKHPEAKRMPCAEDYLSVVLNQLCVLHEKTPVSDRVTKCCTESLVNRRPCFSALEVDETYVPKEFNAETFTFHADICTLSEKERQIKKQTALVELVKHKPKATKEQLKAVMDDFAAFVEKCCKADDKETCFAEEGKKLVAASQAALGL

CCCCCCCCCCCCCCCC(=O)N[C@@H](CCC(=O)NCCCC[C@H](NC(=O)[C@H](CC(=O)O)NC(=O)[C@H](CO)NC(=O)C(NC(=O)[C@H](Cc1ccccc1)NC(=O)C(NC(=O)CNC(=O)[C@H](CCC(N)=O)NC(=O)[C@H](CO)NC(=O)[C@@H](N)Cc1cnc[nH]1)[C@@H](C)O)[C@@H](C)O)C(=O)N[C@@H](CO)C(=O)N[C@@H](CCC(=O)O)C(=O)N[C@@H](Cc1ccc(O)cc1)C(=O)N[C@@H](CC(C)C)C(=O)N[C@@H](CC(=O)O)C(=O)N[C@@H](CO)C(=O)N[C@@H](CCC(=O)O)C(=O)N[C@@H](CCCNC(=N)N)C(=O)N[C@@H](C)C(=O)N[C@@H](CCCNC(=N)N)C(=O)N[C@@H](CC(=O)O)C(=O)N[C@@H](Cc1ccccc1)C(=O)N[C@H](C(=O)N[C@@H](C)C(=O)N[C@@H](Cc1c[nH]c2ccccc12)C(=O)N[C@@H](CC(C)C)C(=O)N[C@@H](CCC(=O)O)C(=O)N[C@@H](C)C(=O)NCC(=O)NCC(=O)O)C(C)C)C(=O)O (some centres unmarked) [Peptide G933]
% DPP cleaved product/+1 DPP cleaved product [1]: <1%
% stable peptide [1]: 86%
Levels of deamidation and DPP IV cleavage ([1]; rat, mouse): low
AUC(0-t) [2]: 364 ng·h/mL
free peptide at 4.4% HSA (human serum albumin): 0.29%
glucose AUC reduction ([3]; Cohort 5 (100/150/200/300 μg, 22 days)): 41.7%
Fasting Glucose (change) ([3]; Cohort 5, 300 ug): -24.40 mg/dL
Glucose AUG (change) ([3]; Cohort 5, 300 ug): −33.7
Weight (change) ([3]; Cohort 5, 300 ug, difference to placebo after 22 days): -2.11 kg
weight loss difference vs placebo ([3]; Cohort 5, 22 days): 2.11 kg
heart rate increase from baseline ([3]; Cohort 5, 22 days administration): approximately 7.6 BPM
weight lost ([3]; Cohort 5, after 22 days): about 3.09 kg
glucose AUC reduction ([3]; Cohort 6 (100/200/300 μg, 17 days)): 35.8%
Fasting Glucose (change) ([3]; Cohort 6, 300 ug): -36.94 mg/dL
Glucose AUG (change) ([3]; Cohort 6, 300 ug): −28.9
Weight (change) ([3]; Cohort 6, 300 ug, difference to placebo after 17 days): -1.88 kg
patients who vomited ([3]; Cohort 6, 1 patient): 8.3%
weight loss difference vs placebo ([3]; Cohort 6, 17 days): 1.88 kg
heart rate increase from baseline ([3]; Cohort 6, 17 days administration): approximately 5.9 BPM
weight lost ([3]; Cohort 6, after 17 days): about 2.23 kg
deaths or serious adverse events ([3]; Cohorts 5 and 6): No deaths or serious adverse events were observed
rate of vomiting ([3]; Cohorts 5 and 6 together, 4/24): 16%
rate of nausea ([3]; Cohorts 5 and 6 together, 8/24): 33%
Fasting Glucose (change) ([4]; Cohort 1, 100 ug, n = 6 active): -28.00 mg/dL
Glucose AUG (change) ([4]; Cohort 1, 100 ug, n = 6 active): −27.3
Weight (change) ([4]; Cohort 1, 100 ug, n = 6 active): -1.1 kg
Fasting Glucose (change) ([4]; Cohort 2, 150 ug, n = 6 active): -17.90 mg/dL
Glucose AUG (change) ([4]; Cohort 2, 150 ug, n = 6 active): −8.9
Weight (change) ([4]; Cohort 2, 150 ug, n = 6 active): -0.5 kg
weight differential ([4]; Cohort 3): more than 2 kg
Fasting Glucose (change) ([4]; Cohort 3, 200 ug, n = 6 active): -43.20 mg/dL
Glucose AUG (change) ([4]; Cohort 3, 200 ug, n = 6 active): −31.6
Weight (change) ([4]; Cohort 3, 200 ug, n = 6 active): -2.4 kg
reduction in liver volume compared to placebo ([4]; Cohort 4): 0.14 L
Death (grade 5 severity) ([4]; Cohort 4, 200 μg, N = 25): 0
Subject with at least one G933-related serious event ([4]; Cohort 4, 200 μg, N = 25): 0
Subject with at least one event ([4]; Cohort 4, 200 μg, N = 25): 22 (88.8%)
Subject with at least one event leading to discontinuation of G933 ([4]; Cohort 4, 200 μg, N = 25): 3 (12.0%)
Subject with at least one event of ≥ grade 3 severity ([4]; Cohort 4, 200 μg, N = 25): 0
Subject with at least one serious event ([4]; Cohort 4, 200 μg, N = 25): 0
Fasting Glucose (change) [4, 6]: -31.62 mg/dL
Glucose AUG (change) [4, 6]: −22.5
patients who vomited ([4]; Cohort 4, 8 patients): 32.0%
patients reporting nausea ([4]; Cohort 4, 13 patients): 52.0%
patients who lost at least 2% of their weight ([4]; Cohort 4, 41 days): 84%
patients who lost at least 5 kg ([4]; Cohort 4, 41 days): 44%
percent weight loss difference between G933 and placebo ([4]; Cohort 4, 41 days): 2.47%
weight loss difference between G933 and placebo ([4]; Cohort 4, 41 days): 2.12 kg
increase in heart rate ([4]; Cohort 4, Day 41): 6.9 bpm
percent of weight lost ([4]; Cohort 4, after 41 days): about 4.18%
weight lost ([4]; Cohort 4, after 41 days): about 3.83 kg
HbA1c reduction ([4]; Cohort 4, after 41 days of treatment): 0.92%
mean HbA1c on day 42 ([4]; Cohort 4, baseline mean […]): 6.3%
mean reduction in glucose AUC from baseline (day 1) to day 41 ([4]; Cohort 4, up to 200 μg): 38.5%
patients with vomiting ([4]; Cohorts 1-3 (n=5)): 26%
weight loss ([4]; Cohorts 1-3, dose dependent trend): up to 2 kg
mixed-meal test glucose AUC reduction ([4]; across Cohorts 1-3 (100-200 μg QD)): > 40%
increase in pulse rate ([4]; each of Cohorts 1-3): about 10 bpm
Between-subject variability in Cmax ([4]; larger Cohort 4): 40-50%
anti-G933 antibody ([4]; post baseline, Cohorts 1-3): Only one sample was confirmed positive
Between-subject variability in Cmax ([4]; smaller cohorts, Parts I and II): 20-30%
half-life [5]: 8 to 11 h
